According to US11253594B2, “Drug combinations for protecting against neuronal cell death” (UNIVERSITY OF PITTSBURGH-OF THE COMMONWEALTH SYSTEM OF …, priority 2017, dated 2022):
Where a name gives a salt, the structure may show the parent alone. Read-outs that look alike come from different tables or passages of the source.

Experiments:
STHdh^Q111 cells [1] = test: 384-well PI (propidium iodide) assay, protection from mHTT induced cell death; assay type: cell-based, mouse; conditions: compound titrations, serum deprived STHdh^Q111 cells
Experimental: The well-established STHdh^Q111 cell model for HD was employed to identify compounds that can protect neuronal cells from mHTT-dependent cell death. […] The propidium iodide (PI) readout enables an unbiased assessment of cell death by measuring an irreversible step that is common to all cytotoxic mechanisms.
The stress conditions for testing compounds involved incubation of the cells in serum-free medium at 37° C. and 5% CO2.
Prior to compound treatment, medium was removed and the cells washed once with PBS (pH=7.4) after which 45 μl of complete medium was added. Compounds in 5 μl complete medium were added to cells. […] Compounds in serum free medium (5 μl) were added and cells were incubated at 37° C. and 5% CO2.
Image analysis was carried out using the Multiwavelength Cell Scoring application in the MetaXpress software. The nuclear compartment was identified in Ch1 with a threshold intensity of 2,000 above background and the Texas Red compartment was identified in Ch2 with a threshold intensity of 20,000 above background.
For the analyses presented here the Percent Recovery was calculated from the Percent PI positive cells by:
[formula] where positive controls are the STHdh^Q7 cells, and negative controls are the STHdh^Q111 cells treated with DMSO
The LOPAC library was screened in the 384-well PI assay at 30, 10, and 3 μM.

[2] = tested on: PKA phosphorylated at threonine 197 (pPKA) in STHdh^Q111 cells; test: PKA activation assay (pPKA, high content analysis); assay type: cell-based, mouse; conditions: 24 h serum free conditions
Experimental: The pPKA levels were examined at 24 hours after serum free conditions since this was the condition where the protection of the compounds was measured.
Cells were treated as described for testing in the 384-well PI assay. […] Plates were blocked with 3% BSA in PBS and were incubated with rabbit anti-PKA (αβγ catalytic subunit; EP2606Y; phospho-T197, abcam, Cambridge Mass.) mAb overnight at 4° C. […] Image analysis was carried out using the Multiwavelength Translocation application in the MetaExpress software. The nuclear compartment was identified in Ch1 with a threshold intensity of 5,000 above background (the nuclear mask). The nuclear mask was eroded 1 μm to create the Inner region mask in Ch2. […] The cytoplasmic pKA was measured in a […] ring around the nuclear mask.

STHdh^Q111 cells [3] = assay type: cell-based; conditions: for toxicity / protection with or of the PKA inhibitor: STHdh^Q111 cells, PI assay conditions; for reduction in the level of protection compared to compound alone: co-incubation with 10 μM H89
[4] = tested on: pCREB in the nucleus of STHdh^Q111 cells; test: Nuclear pCREB high content analysis (surrogate marker for PKA activity); assay type: cell-based, mouse; conditions: 10 μM H89 co-incubated with protective compounds
Excerpt: The concentrations used were chosen to be on plateau of their respective activity curves (see FIG. 3). […] Analysis is from triplicate samples run in four independent experiments (Error bars are +/−SE). T-test was used to assess changes in the percent recovery levels relative to the STHdh^Q111 cells treated with compound without H89. […] Analysis was from triplicate samples run in four independent experiments (Error bars are +/−SE). T-test was used to assess changes in the pCREB intensity relative to the STHdhQ111 cells treated with compound without H89.
H89 has been used extensively in the literature as a selective and potent inhibitor of PKA. If the protection from cell death by these compounds involved activation of PKA, then the addition of an inhibitor of PKA would be expected to reverse the protective effects of the compounds. […] Since the primary canonical mechanism of sodium nitroprusside is activation of PKG, and given that H89 is ˜10-fold selective for PKA over PKG, the absence of a marked effect with sodium nitroprusside is not unexpected. […] To confirm inhibition of PKA activity by H89 under the conditions of the PI assay, the levels of nuclear pCREB were measured using high content analysis. Consistent with the heterogeneity seen in the response of the STHdh^Q111 cells to protection by the compounds, a heterogeneous distribution of pCREB levels was also detected. […]

PKA = PKA (Homo sapiens, UniProt P17612); conditions: cited from earlier work
[5] = tested on: cAMP levels in STHdh^Q111 cells; test: cAMP Enzyme Immunoassay
cells expressing mHTT [6] = test: Example 2 screen of a larger mechanistically diverse chemical library for protection from mHTT-induced cytotoxicity
cells expressing mHTT [7] = tested on: cells expressing mHTT

Compound	neuroprotective activity in the PI assay (STHdh^Q111 cells [1])	cytoplasmic pPKA, concentration response [2]	reduction in the level of protection compared to compound alone (STHdh^Q111 cells [3]) [%]	also measured
CN1[C@@H]2CC[C@H]1C[C@@H](OC(c1ccccc1)c1ccccc1)C2 [Benztropine mesylate]	confirmed neuroprotective activity	concentration-dependent increase		toxicity / protection with or of the PKA inhibitor (STHdh^Q111 cells [3]): increased toxicity
O=S(=O)(NCCNC/C=C/c1ccc(Br)cc1)c1cccc2cnccc12 [Combination H89]				toxicity / protection with or of the PKA inhibitor (STHdh^Q111 cells [3]): no significant protection or toxicity; levels of nuclear pCREB [4]: decreased; selectivity for PKA over PKG (PKA): ~10 fold
O=c1[nH]c2ccccc2n1CCCN1CCC(n2c(=O)[nH]c3cc(Cl)ccc32)CC1 [Domperidone]	confirmed neuroprotective activity		56	
CCC(NC(C)C)C(O)c1ccc(O)c(O)c1 (stereo not shown) [Isotharine mesylate]	confirmed neuroprotective activity	concentration-dependent increase	34	statistical significance of change in cAMP levels ([5]; 15 and 30 minutes, t-test vs DMSO): statistically significant increase
CCCn1c(C)c(C(=O)c2cccc3ccccc23)c2ccccc21 [JWH-015]	confirmed neuroprotective activity			protection from mHTT-induced cytotoxicity in the screen (cells expressing mHTT [6]): demonstrating protection
CN1CCN(C2=Nc3ccccc3Oc3ccc(Cl)cc32)CC1 [Loxapine succinate]	confirmed neuroprotective activity	concentration-dependent increase	52	
CN1CCN2c3ccccc3Cc3ccccc3C2C1 (stereo not shown) [Mianserin hydrochloride]	confirmed neuroprotective activity	concentration-dependent increase	35	
COc1ccc(Cc2nccc3cc(OC)c(OC)cc23)cc1OC [Papaverine hydrochloride]	confirmed neuroprotective activity	less pronounced	55	
CNC(=O)COC(=O)N1CCC(CCc2ccc(Cl)cc2)CC1 [SA 57]				protection from mHTT-induced cytotoxicity in the screen (cells expressing mHTT [7]): demonstrating protection
O=C(CCCCCCC(=O)Nc1ccccc1)NO [Vorinostat]	confirmed neuroprotective activity			
C=C[C@@]1(C)CC(=O)[C@]2(O)[C@@]3(C)[C@@H](O)CCC(C)(C)[C@@H]3[C@H](O)[C@H](OC(C)=O)[C@@]2(C)O1 [forskolin]				increase in cAMP over the DMSO control ([5]; 15 minutes after compound treatment in the presence of serum): 250 fold
Tetradecylthioacetic acid	confirmed neuroprotective activity			
m-Iodobenzylguanidine hemisulfate	confirmed neuroprotective activity			
